This note sets out measurements from article PMC12951562, “SH2scan: Mapping SH2 Domain-Ligand Binding Selectivity for Inhibitors and Degraders” (Journal of Medicinal Chemistry, 2026).

Common to all, as to assay: biochemical
Holding throughout (assay type): binding

One assay deals with T1, DAPP1 (Homo sapiens, UniProt Q9UN19).
T1 construct: the DNA-tagged SH2 domain concentrations used in this study were <0.1 nM; made in house; host or cells: HEK293 (transient transfection; unpurified extract)
T1 sequence (Q9UN19 35-129 limits assumed): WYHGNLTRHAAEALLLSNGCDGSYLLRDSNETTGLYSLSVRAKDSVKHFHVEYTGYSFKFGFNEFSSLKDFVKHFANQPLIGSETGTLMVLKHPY

In the next assay the target is T2, SOCS4 (Homo sapiens, UniProt Q8WXH5).
T2 construct: made in house; host or cells: HEK293 (transient transfection), unpurified extract
T2 sequence (Q8WXH5 1-440): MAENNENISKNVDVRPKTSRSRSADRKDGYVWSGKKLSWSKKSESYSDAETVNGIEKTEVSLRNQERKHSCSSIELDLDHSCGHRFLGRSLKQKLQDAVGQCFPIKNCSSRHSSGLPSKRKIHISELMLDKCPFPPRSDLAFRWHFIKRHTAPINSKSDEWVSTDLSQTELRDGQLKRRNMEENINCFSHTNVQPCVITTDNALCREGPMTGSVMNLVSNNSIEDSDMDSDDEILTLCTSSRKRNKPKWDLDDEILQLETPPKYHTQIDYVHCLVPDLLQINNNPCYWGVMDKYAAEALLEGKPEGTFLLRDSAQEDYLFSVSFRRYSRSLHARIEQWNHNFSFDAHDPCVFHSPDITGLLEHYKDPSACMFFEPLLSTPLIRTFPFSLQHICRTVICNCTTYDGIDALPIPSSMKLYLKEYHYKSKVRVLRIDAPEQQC

In a further assay the target is T3, STAP1 (Homo sapiens, UniProt Q9ULZ2).
T3 construct: made in house; host or cells: HEK293 (transient transfection), unpurified extract
T3 sequence (Q9ULZ2 1-295): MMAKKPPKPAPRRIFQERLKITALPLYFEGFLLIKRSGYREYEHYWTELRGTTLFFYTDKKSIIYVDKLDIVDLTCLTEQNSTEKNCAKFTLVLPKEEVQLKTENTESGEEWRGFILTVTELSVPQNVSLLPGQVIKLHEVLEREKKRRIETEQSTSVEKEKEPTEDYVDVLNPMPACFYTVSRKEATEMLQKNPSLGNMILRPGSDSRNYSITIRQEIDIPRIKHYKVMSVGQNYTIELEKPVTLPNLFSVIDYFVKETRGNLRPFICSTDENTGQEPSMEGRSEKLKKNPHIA

For another assay, the target named is T4, STAP2 (Homo sapiens, UniProt Q9UGK3).
T4 construct: made in house; host or cells: HEK293 (transient transfection), unpurified extract
T4 sequence (Q9UGK3 1-403): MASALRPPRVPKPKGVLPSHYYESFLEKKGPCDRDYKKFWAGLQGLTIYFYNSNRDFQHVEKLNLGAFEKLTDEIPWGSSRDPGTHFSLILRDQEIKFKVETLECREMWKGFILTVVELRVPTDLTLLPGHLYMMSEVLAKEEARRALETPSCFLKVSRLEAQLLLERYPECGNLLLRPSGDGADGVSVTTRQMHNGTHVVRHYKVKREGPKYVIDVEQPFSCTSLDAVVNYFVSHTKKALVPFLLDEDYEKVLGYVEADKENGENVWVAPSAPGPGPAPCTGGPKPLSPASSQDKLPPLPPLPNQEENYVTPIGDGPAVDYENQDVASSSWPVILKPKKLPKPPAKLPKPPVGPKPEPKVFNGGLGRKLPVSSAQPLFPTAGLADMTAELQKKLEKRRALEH

In the next assay the target is T5, PTPN6(SH2dom.C-term.) (Homo sapiens, UniProt P29350).
T5 construct: SH2dom.C-term. denotes SH2 domain closest to C-terminus of protein; made in house; host or cells: HEK293 (transient transfection, unpurified extract)
T5 sequence (P29350 110-213 limits assumed): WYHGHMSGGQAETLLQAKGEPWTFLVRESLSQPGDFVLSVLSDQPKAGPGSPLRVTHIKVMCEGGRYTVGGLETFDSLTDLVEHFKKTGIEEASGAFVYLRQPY

The target of a further assay is T6, CRKL (Homo sapiens, UniProt P46109).
T6 construct: the DNA-tagged SH2 domain concentrations used in this study were <0.1 nM; made in house; host or cells: HEK293 (transient transfection; unpurified extract)

A further assay deals with T7, RASA1(SH2dom.C-term.) (Homo sapiens, UniProt P20936).
T7 construct: SH2dom.C-term. denotes SH2 domain closest to C-terminus of protein; made in house; host or cells: HEK293 (transient transfection, unpurified extract)
T7 sequence (P20936 351-441 limits assumed): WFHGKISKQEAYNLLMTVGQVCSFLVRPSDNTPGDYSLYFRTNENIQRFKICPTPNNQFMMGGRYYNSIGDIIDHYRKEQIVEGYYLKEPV

In the next assay the target is T8, BRK (Homo sapiens, UniProt Q13882).
T8 construct: the DNA-tagged SH2 domain concentrations used in this study were <0.1 nM; made in house; host or cells: HEK293 (transient transfection; unpurified extract)

The next assay has as its target T9, GRB10 (Homo sapiens, UniProt Q13322).
T9 construct: the DNA-tagged SH2 domain concentrations used in this study were <0.1 nM; made in house; host or cells: HEK293 (transient transfection; unpurified extract)
T9 sequence (Q13322 493-574 limits assumed): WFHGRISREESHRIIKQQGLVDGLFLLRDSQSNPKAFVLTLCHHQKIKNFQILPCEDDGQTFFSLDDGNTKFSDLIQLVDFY

The next assay addresses T10, MIST (Homo sapiens, UniProt Q7Z7G1).
T10 construct: the DNA-tagged SH2 domain concentrations used in this study were <0.1 nM; made in house; host or cells: HEK293 (transient transfection, unpurified extract)
T10 sequence (Q7Z7G1 309-419 limits assumed): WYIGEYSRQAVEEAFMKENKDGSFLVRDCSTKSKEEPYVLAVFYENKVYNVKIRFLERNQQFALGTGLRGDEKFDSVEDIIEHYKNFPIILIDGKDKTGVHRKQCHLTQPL

Another assay concerns the target T11, BLNK (Homo sapiens, UniProt Q8WV28).
T11 construct: the DNA-tagged SH2 domain concentrations used in this study were <0.1 nM; made in house; host or cells: HEK293 (transient transfection; unpurified extract)
T11 sequence (Q8WV28 346-453 limits assumed): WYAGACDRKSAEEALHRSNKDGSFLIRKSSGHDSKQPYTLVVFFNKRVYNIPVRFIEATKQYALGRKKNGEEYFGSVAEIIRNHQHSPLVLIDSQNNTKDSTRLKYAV

The next assay concerns the target T12, ITK (Homo sapiens, UniProt Q08881).
T12 construct: the DNA-tagged SH2 domain concentrations used in this study were <0.1 nM; made in house; host or cells: HEK293 (transient transfection, unpurified extract)
T12 sequence (Q08881 239-338 limits assumed): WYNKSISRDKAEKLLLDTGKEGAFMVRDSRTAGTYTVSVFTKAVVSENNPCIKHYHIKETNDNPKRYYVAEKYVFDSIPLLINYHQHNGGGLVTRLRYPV

For the next assay, the target named is T13, SLP76 (Homo sapiens, UniProt Q13094).
T13 construct: made in house; host or cells: HEK293 (transient transfection), unpurified extract
T13 sequence (Q13094 1-533): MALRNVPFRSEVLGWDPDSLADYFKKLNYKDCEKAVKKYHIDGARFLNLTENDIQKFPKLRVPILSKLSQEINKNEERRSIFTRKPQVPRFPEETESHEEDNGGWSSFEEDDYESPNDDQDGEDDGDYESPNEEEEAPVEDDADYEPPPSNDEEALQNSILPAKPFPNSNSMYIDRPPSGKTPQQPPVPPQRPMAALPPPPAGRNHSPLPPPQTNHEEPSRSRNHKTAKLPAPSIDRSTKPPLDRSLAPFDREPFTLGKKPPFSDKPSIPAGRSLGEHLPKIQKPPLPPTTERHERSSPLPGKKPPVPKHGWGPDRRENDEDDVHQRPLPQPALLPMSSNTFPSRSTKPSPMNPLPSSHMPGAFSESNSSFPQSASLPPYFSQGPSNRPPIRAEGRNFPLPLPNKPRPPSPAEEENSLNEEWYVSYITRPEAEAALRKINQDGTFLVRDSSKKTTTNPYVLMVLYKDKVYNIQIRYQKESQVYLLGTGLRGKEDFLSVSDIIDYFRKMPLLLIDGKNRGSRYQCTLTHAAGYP

The target in a further assay is T14, APS (SH2B2) (Homo sapiens, UniProt O14492).
T14 construct: the DNA-tagged SH2 domain concentrations used in this study were <0.1 nM; made in house; host or cells: HEK293 (transient transfection; unpurified extract)

Non-standard residues stand in square brackets, D forms with d. Residues, ends and D or L forms follow the SMILES beside them. pY = N[C@@H](Cc1ccc(OP(=O)(O)O)cc1)C(=O)O

By Kd is commonly meant the equilibrium constant for the complex coming apart. Low readings indicate a tighter complex, high ones a looser complex.

T8 sequence (Q13882 78-170 limits assumed): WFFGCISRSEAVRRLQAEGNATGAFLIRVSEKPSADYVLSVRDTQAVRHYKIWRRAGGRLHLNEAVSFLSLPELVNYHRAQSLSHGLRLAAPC
T6 sequence (P46109 14-102 limits assumed): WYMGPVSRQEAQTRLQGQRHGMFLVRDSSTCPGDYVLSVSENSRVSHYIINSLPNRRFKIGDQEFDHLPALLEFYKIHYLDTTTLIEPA
T14 sequence (O14492 417-515 limits assumed): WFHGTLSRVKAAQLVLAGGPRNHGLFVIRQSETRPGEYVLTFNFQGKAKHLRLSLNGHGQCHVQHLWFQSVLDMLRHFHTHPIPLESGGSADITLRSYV

For `CC(=O)N[C@@H](CC(C)C)C(=O)N[C@@H](CC(C)C)C(=O)N1CCC[C@H]1C(=O)N[C@@H](CC(C)C)C(=O)N[C@@H](CC(=O)O)C(=O)N[C@@H](CCCCN)C(=O)N[C@@H](CC(=O)O)C(=O)N[C@@H](Cc1ccc(OP(=O)(O)O)cc1)C(=O)N[C@@H](Cc1ccc(OP(=O)(O)O)cc1)C(=O)N[C@H](C(=O)N[C@H](C(=O)N[C@@H](CCCNC(=N)N)C(=O)N[C@@H](CCC(=O)O)C(=O)N1CCC[C@H]1C(=O)NCC(=O)N[C@@H](CCC(N)=O)C(N)=O)C(C)C)C(C)C`, the figures for the Kd at DAPP1 and on SOCS4 were 41.3 ± 5.96 µM and 1.91 ± 0.5 nM, respectively.

In the case of `CC[C@H](C)[C@H](NC(=O)[C@H](CC(C)C)NC(=O)[C@@H](NC(=O)[C@H](CC(N)=O)NC(=O)[C@H](CCC(=O)O)NC(=O)[C@H](Cc1ccc(OP(=O)(O)O)cc1)NC(=O)[C@H](CO)NC(=O)[C@H](CC(N)=O)NC(=O)[C@H](C)NC(C)=O)C(C)C)C(=O)N[C@@H](C)C(=O)N[C@@H](CCCCN)C(N)=O` (Ac-ANS[pY]ENVLIAK-NH2), the Kd at STAP1 turned out to be 2780 ± 615 nM; at STAP2, 38.9 ± 7.93 µM.

`CC[C@H](C)[C@H](NC(=O)[C@H](CCC(=O)O)NC(=O)[C@H](CCC(N)=O)NC(=O)[C@H](CCC(=O)O)NC(=O)[C@@H](NC(=O)[C@H](C)NC(C)=O)[C@@H](C)O)C(=O)N[C@H](C(=O)N[C@@H](Cc1ccc(OP(=O)(O)O)cc1)C(=O)N[C@@H](C)C(=O)N[C@@H](CCC(=O)O)C(=O)N[C@@H](CC(C)C)C(=O)N[C@@H](CC(N)=O)C(=O)N[C@@H](CC(C)C)C(=O)N[C@@H](CCC(N)=O)C(=O)N[C@@H](CCCCN)C(N)=O)[C@@H](C)O` (Ac-ATEQEIT[pY]AELNLQK-NH2) yielded a Kd at PTPN6(SH2dom.C-term.) of 1490 ± 666 nM.

At CRKL, `CC(=O)N[C@@H](CCC(=O)O)C(=O)N1CCC[C@H]1C(=O)NCC(=O)N1CCC[C@H]1C(=O)N[C@@H](Cc1ccc(OP(=O)(O)O)cc1)C(=O)N[C@@H](C)C(=O)N[C@@H](CCC(N)=O)C(=O)N1CCC[C@H]1C(=O)N[C@@H](CO)C(=O)N[C@H](C(=O)N[C@@H](CC(N)=O)C(=O)N[C@H](C(N)=O)[C@@H](C)O)C(C)C` (Ac-EPGP[pY]AQPSVNT-NH2) returned a Kd of 1200 ± 309 nM.

With `CSCC[C@H](NC(=O)[C@@H]1CCCN1C(=O)[C@H](CCC(=O)O)NC(=O)[C@H](C)NC(=O)[C@H](Cc1ccc(OP(=O)(O)O)cc1)NC(=O)[C@H](CC(=O)O)NC(=O)[C@H](CO)NC(=O)[C@@H]1CCCN1C(=O)[C@H](CC(=O)O)NC(=O)[C@H](Cc1ccccc1)NC(=O)CNC(C)=O)C(=O)N[C@@H](CC(=O)O)C(=O)N[C@@H](C)C(=O)N[C@H](C(=O)N[C@H](C(N)=O)C(C)C)C(C)C` (Ac-GFDPSD[pY]AEPMDAVV-NH2), on RASA1(SH2dom.C-term.), the Kd is 4.11 ± 0.48 nM.

As to `CC(=O)N[C@@H](CC(=O)O)C(=O)N[C@@H](CC(=O)O)C(=O)N[C@@H](CC(=O)O)C(=O)N[C@@H](Cc1ccc(OP(=O)(O)O)cc1)C(=O)N[C@@H](CC(=O)O)C(=O)N[C@@H](CC(=O)O)C(=O)N[C@H](C(=O)N[C@@H](CC(=O)O)C(N)=O)C(C)C` [Ac-DDDpYDDVD-NH2] (Ac-DDD[pY]DDVD-NH2), the Kd at BRK stood at 226 ± 200 nM; on GRB10, 1260 ± 1160 nM; at MIST, 32.9 ± 6.7 nM; on BLNK it was 137 ± 22.4 nM; at ITK it was 1450 ± 153 nM; at SLP76, 1410 ± 432 nM. At APS (SH2B2), this compound showed a Kd of 8.78 ± 0.971 µM.
